Experiment [1] relates to HEK293 clonal cell line overexpressing APOL1 G1. In words: APOL1 G1 HEK293 cell rescue assay (Example B3). In kind it is cell-based. To be noted: geometric mean of at least 2 runs, † = single run, ¥ = concentration at 50% rescue estimated (no sigmoidal curve). Put shortly: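 HEK293 clonal line overexpressing APOL1 G1; EC50 is half-maximal reversal of APOL1-induced cell death. Values are the geometric mean of ≥2 runs on separate days, each run the average of duplicate wells. Where no sigmoidal curve could be fitted, the concentration giving 50% rescue was estimated.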

Experiment [2] relates to Trypanosoma brucei Lister 427 VSG221 with APOL1 G1 recombinant protein. As to the kind of experiment: APOL1 G1 trypanosome cell rescue assay (Example B5). In kind it is cell-based. The following applies: geometric mean of at least 2 assay runs, † = single assay run. Put shortly: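 Recombinant mature APOL1 (residues 28-398, His-tag removed, E. coli-expressed, refolded from inclusion bodies, DDM buffer) at […] added with 250 trypanosomes/well in modified HMI-9 media. Duplicate 11-point 2-fold compound series, 0.4% DMSO; 20 h at 37° C, 5% CO2, then CellTiter-Glo luminescence for viability.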

Where [3] appears, read: Homo sapiens, HEK293, HEK293 clonal line overexpressing APOL1 G1.
The mark [4] stands for this setting: Trypanosoma brucei, 20 h, read-out: APOL1 G1 Trypanosome Rescue EC50, Trypanosoma brucei Lister 427 VSG221 with APOL1 G1 recombinant protein, 20 hours, CellTiter-Glo.
Setting [5] is: HEK293 clonal line overexpressing APOL1 G1.
Setting [6] is: read-out: APOL1 G1 Trypanosome Rescue EC50, Trypanosoma brucei Lister 427 VSG221 with APOL1 G1 recombinant protein, 20 hours, CellTiter-Glo.

Like-named read-outs stand apart in the source and are kept apart here.

A word on the EC50: it is the concentration at which the effect is half-maximal. For the compound `CC(c1ccc(OCCN2CCC3(CC2)C(=O)Nc2ccc(Cl)cc23)cc1)S(C)(=O)=O` (single isomer, unassigned) [Compound 39, 5-chloro-1′-(2-{4-[(1S) or (1R)-1-methanesulfonylethyl]phenoxy}ethyl)-1,2-dihydrospiro[indole-3,4′-piperidin]-2-one], the half-maximal effective concentration (EC50) was over 247 nM in experiment [1] (setting [3]) and 206 nM in experiment [2] (setting [4]).
Regarding `O=C1CCc2cc(OCCN3CCC4(CC3)C(=O)Nc3ccc(Cl)cc34)cnc2N1[C@H]1C[C@@H](CO)C1` (single isomer, unassigned) [Compound 319, 5-chloro-1′-[2-({7-oxo-8-[(cis)-3-(hydroxymethyl)cyclobutyl]-5,6,7,8-tetrahydro-1,8-naphthyridin-3-yl}oxy)ethyl]-1,2-dihydrospiro[indole-3,4′-piperidin]-2-one], the results for the concentration for a half-maximal effect (EC50) in experiment [1] (setting [3]) and in experiment [2] (setting [4]) were 118 nM and 81.1 nM, respectively.
For `CC[C@]1(O)C[C@@H](N2C(=O)CCc3cc(OCCN4CCC5(CC4)C(=O)Nc4ccc(Cl)cc45)cnc32)C1` (single isomer, unassigned) [Compound 321, 5-chloro-1′-[2-({7-oxo-8-[(cis)-3-ethyl-3-hydroxycyclobutyl]-5,6,7,8-tetrahydro-1,8-naphthyridin-3-yl}oxy)ethyl]-1,2-dihydrospiro[indole-3,4′-piperidin]-2-one], the concentration giving a half-maximal response (EC50) was 47.7 nM in experiment [1] (setting [3]) and 45.9 nM in experiment [2] (setting [4]).
Turning to `CC1(O)CC(CN2C(=O)CCc3cc(OCCN4CCC5(CC4)C(=O)Nc4ccc(Cl)cc45)cnc32)C1` (single isomer, unassigned) [Compound 322, 5-chloro-1′-{2-[(7-oxo-8-{[(trans) or (cis)-3-hydroxy-3-methylcyclobutyl]methyl}-5,6,7,8-tetrahydro-1,8-naphthyridin-3-yl)oxy]ethyl}-1,2-dihydrospiro[indole-3,4′-piperidin]-2-one], the EC50 in experiment [1] (setting [5]) is 38.6 nM; in experiment [2] (setting [6]), 34.9 nM.
Take `C[C@]1(O)C[C@@H](n2ncc3cc(OCCN4CCC5(CC4)C(=O)Nc4ccc(Cl)cc45)cnc32)C1` (single isomer, unassigned) [Compound 357, 5-chloro-1′-[2-({1-[(cis)-3-hydroxy-3-methylcyclobutyl]-1H-pyrazolo[3,4-b]pyridin-5-yl}oxy)ethyl]-1,2-dihydrospiro[indole-3,4′-piperidin]-2-one]: the concentration for a half-maximal effect (EC50) is 35.3 nM in experiment [1] (setting [3]) and 91.6 nM in experiment [2] (setting [4]).
On to `CC1(O)CC(c2ncc(OCCN3CCC4(CC3)C(=O)Nc3ccc(Cl)cc34)cn2)C1` (single isomer, unassigned) [Compound 393, 5-chloro-1′-[2-({2-[(cis) or (trans)-3-hydroxy-3-methylcyclobutyl]pyrimidin-5-yl}oxy)ethyl]-1,2-dihydrospiro[indole-3,4′-piperidin]-2-one], for which the concentration giving a half-maximal response (EC50) is 159 nM in experiment [1] (setting [5]) and 360 nM in experiment [2] (setting [6]).
With `C[C@]1(O)C[C@H](n2ncc3cc(OCCN4CCC5(CC4)C(=O)Nc4ccc(Cl)cc45)cnc32)C1` (single isomer, unassigned) [Compound 408, 5-chloro-1′-[2-({1-[(trans)-3-hydroxy-3-methylcyclobutyl]-1H-pyrazolo[3,4-b]pyridin-5-yl}oxy)ethyl]-1,2-dihydrospiro[indole-3,4′-piperidin]-2-one], the EC50 in experiment [1] (setting [3]) was 56 nM; in experiment [2] (setting [4]), 121 nM.
Regarding `C[C@]1(O)C[C@@H](N2C(=O)CCc3cc(OCCN4CCC5(CC4)C(=O)Nc4ccc(OC(F)F)cc45)cnc32)C1` [Cmpd 325, 5-(difluoromethoxy)-1′-[2-({7-oxo-8-[(cis)-3-hydroxy-3-methylcyclobutyl]-5,6,7,8-tetrahydro-1,8-naphthyridin-3-yl}oxy)ethyl]-1,2-dihydrospiro[indole-3,4′-piperidin]-2-one], the results for the EC50 in experiment [1] (setting [3]) and in experiment [2] (setting [4]) were 197 nM and 269 nM, respectively.
In the same order, the values of `CC(c1ncc(OCCN2CCC3(CC2)C(=O)Nc2ccc(Cl)cc23)cn1)S(C)(=O)=O` (stereo not drawn) [Compound 1, 5-Chloro-1′-(2-{[2-(1-methanesulfonylethyl)pyrimidin-5-yl]oxy}ethyl)-1,2-dihydrospiro[indole-3,4′-piperidin]-2-one] are 302 nM and 293 nM.
As for `CS(=O)(=O)C1(c2ncc(OCCN3CCC4(CC3)C(=O)Nc3ccc(Cl)cc34)cn2)CC1` [Compound 4, 5-chloro-1′-(2-{[2-(1-methanesulfonylcyclopropyl)pyrimidin-5-yl]oxy}ethyl)-1,2-dihydrospiro[indole-3,4′-piperidin]-2-one], the figures for the concentration giving a half-maximal response (EC50) in experiment [1] (setting [3]) and in experiment [2] (setting [4]) were 177 nM and 171 nM, respectively.
Take `Cc1nc(-c2ccc(OCCN3CCC4(CC3)C(=O)N(C)c3ccccc34)cc2)no1` [Compound 35, 1-methyl-1′-{2-[4-(5-methyl-1,2,4-oxadiazol-3-yl)phenoxy]ethyl}-1,2-dihydrospiro[indole-3,4′-piperidin]-2-one]: the EC50 in experiment [1] (setting [3]) is 488 nM; in experiment [2] (setting [4]), over 4000 nM.
For `CC(C)(CO)c1ncc(OCCN2CCC3(CC2)C(=O)Nc2ccc(Cl)cc23)cn1` [Compound 334, 5-chloro-1′-(2-{[2-(1-hydroxy-2-methylpropan-2-yl)pyrimidin-5-yl]oxy}ethyl)-1,2-dihydrospiro[indole-3,4′-piperidin]-2-one], the 50% effective concentration (EC50) in experiment [1] (setting [3]) is 269 nM.
Regarding `C[C@]1(O)C[C@@H](n2ccc3cc(OCCN4CCC5(CC4)C(=O)Nc4ccc(C(F)F)cc45)cnc32)C1` [Compound 350, 5-(difluoromethyl)-1′-[2-({1-[(cis)-3-hydroxy-3-methylcyclobutyl]-1H-pyrrolo[2,3-b]pyridin-5-yl}oxy)ethyl]-1,2-dihydrospiro[indole-3,4′-piperidin]-2-one], the EC50 in experiment [1] (setting [3]) was 43.9 nM.
For the compound `C[C@]1(O)C[C@@H](n2c(=O)oc3cc(OCCN4CCC5(CC4)C(=O)Nc4ccc(Cl)cc45)cnc32)C1` [Compound 394, 5-chloro-1′-[2-({2-oxo-3-[(cis)-3-hydroxy-3-methylcyclobutyl]-2H,3H-[1,3]oxazolo[4,5-b]pyridin-6-yl}oxy)ethyl]-1,2-dihydrospiro[indole-3,4′-piperidin]-2-one], in experiment [1] (setting [3]), the EC50 was 77.7 nM.
For `O=C1Nc2ccc(Cl)cc2C12CCN(CCOc1cnc(N3CC4(CC(O)C4)C3)nc1)CC2` [Compound 396, 5-chloro-1′-{2-[(2-{6-hydroxy-2-azaspiro[3.3]heptan-2-yl}pyrimidin-5-yl)oxy]ethyl}-1,2-dihydrospiro[indole-3,4′-piperidin]-2-one], the concentration giving a half-maximal response (EC50) in experiment [1] (setting [3]) is 85 nM.
In the case of `CC(CO)(c1ncc(OCCN2CCC3(CC2)C(=O)Nc2ccc(Cl)cc23)cc1C(F)(F)F)S(C)(=O)=O` (stereo not drawn) [Compound 401, 5-chloro-1′-(2-{[6-(1-hydroxy-2-methanesulfonylpropan-2-yl)-5-(trifluoromethyl)pyridin-3-yl]oxy}ethyl)-1,2-dihydrospiro[indole-3,4′-piperidin]-2-one], in experiment [1] (setting [3]), the EC50 is 68.2 nM.
On to `CC(C)(O)c1ncc(OCCN2CCC3(CC2)C(=O)Nc2ccc(C#N)cc23)cc1C(F)(F)F` [Compound 411, 1′-(2-{[6-(2-hydroxypropan-2-yl)-5-(trifluoromethyl)pyridin-3-yl]oxy}ethyl)-2-oxo-1,2-dihydrospiro[indole-3,4′-piperidine]-5-carbonitrile], for which the EC50 in experiment [1] (setting [3]) is 55.6 nM.
For `C[C@]1(O)C[C@@H](n2cnc3cc(OCCN4CCC5(CC4)C(=O)Nc4ccc(C#N)cc45)cc(C(F)(F)F)c32)C1` [Compound 433, 1′-(2-((1-((cis)-3-hydroxy-3-methylcyclobutyl)-7-(trifluoromethyl)-1H-benzo[d]imidazol-5-yl)oxy)ethyl)-2-oxospiro[indoline-3,4′-piperidine]-5-carbonitrile], in experiment [1] (setting [3]), the EC50 is 29.6 nM.
`C[C@]1(O)C[C@@H](n2nnc3cc(OCCN4CCC5(CC4)C(=O)Nc4ccc(Cl)cc45)cc(C(F)(F)F)c32)C1` [Compound 434, 5-chloro-1′-[2-({1-[(cis)-3-hydroxy-3-methylcyclobutyl]-7-(trifluoromethyl)-1H-1,2,3-benzotriazol-5-yl}oxy)ethyl]-1,2-dihydrospiro[indole-3,4′-piperidin]-2-one]: in experiment [1] (setting [3]), the EC50 was 14.8 nM.
The same measure, in the same setting: under `Cc1nc2cc(OCCN3CCC4(CC3)C(=O)Nc3ccc(Cl)cc34)cc(C(F)(F)F)c2n1[C@H]1C[C@@](C)(O)C1` [Compound 442, 5-chloro-1′-[2-({2-methyl-1-[(cis)-3-hydroxy-3-methylcyclobutyl]-7-(trifluoromethyl)-1H-1,3-benzodiazol-5-yl}oxy)ethyl]-1,2-dihydrospiro[indole-3,4′-piperidin]-2-one] stands 15.6 nM.
Consider `Cc1nc2cc(OCCN3CCC4(CC3)C(=O)Nc3ccc(C#N)cc34)cc(C(F)(F)F)c2n1[C@H]1C[C@@](C)(O)C1` [Compound 443, 1′-[2-({2-methyl-1-[(cis)-3-hydroxy-3-methylcyclobutyl]-7-(trifluoromethyl)-1H-1,3-benzodiazol-5-yl}oxy)ethyl]-2-oxo-1,2-dihydrospiro[indole-3,4′-piperidine]-5-carbonitrile], for which the EC50 in experiment [1] (setting [3]) is 30.8 nM.
For the compound `C[C@]1(O)C[C@@H](n2cnc3cc(OCCN4CCC5(CC4)C(=O)Nc4ccc(C(F)F)cc45)cc(C(F)(F)F)c32)C1` [Compound 450, 5-(difluoromethyl)-1′-[2-({1-[(cis)-3-hydroxy-3-methylcyclobutyl]-7-(trifluoromethyl)-1H-1,3-benzodiazol-5-yl}oxy)ethyl]-1,2-dihydrospiro[indole-3,4′-piperidin]-2-one], the half-maximal effective concentration (EC50) in experiment [1] (setting [3]) is 14.9 nM.

The values above are taken from patent US12344610B2, “APOL1 inhibitors and methods of use” (Maze Therapeutics, Inc., priority 2022, dated 2025).
